The text below walks through data of patent publication US20110256206A1, “IMPLANTABLE DEVICES FOR TREATING HIV” (priority 2008, published 2011).

The nature of data set [1]: Effect of gamma irradiation process parameters on recovery of TMC278 from polymer specimens. Type of data set: physicochemical. As to the method:
For those samples that were irradiated under a nitrogen atmosphere, the following procedure was followed. Polymer implants were prepared containing 60% TMC278 and 40% PLGA 50/50 as described above. Samples were placed in Nalgene™ cuvettes inside the antechamber of a nitrogen glovebox. An automatic vacuum cycle was executed consisting of three 8 minute vacuum purges each followed by nitrogen refilling. The samples were transferred to the main chamber and allowed to equilibrate overnight. The cuvettes were placed in foil pouches and the pouches were sealed before removal from the nitrogen glovebox. Samples were removed from glovebox and irradiated as directed.
Those samples that were irradiated under ambient conditions were placed in vials and aluminum pouches, which were heat sealed under ambient conditions and were stored at 0° C. until they reached that temperature. The samples that were processed at 0° C. were stored at 0° C. Subsequently, the samples were removed from freezer environment and immediately placed in the irradiator. […]
From the data it can be seen that exposure level of irradiation is the most significant factor in achieving complete recovery of TMC278 from irradiated samples. […] In addition, the samples that were exposed to 15 kgy irradiation under nitrogen environment were analyzed for impurities stemming from TMC278 degradation.

The conditions of data set [2]: clinical studies; less frequent than with marketed NNRTIs; cited from earlier work.
Data set [3] can be described thus: Solubility of TMC278 and of TMC278 recrystallized from DMSO. Type of data set: physicochemical. As for the experimental part: In addition to increasing the water uptake into the bulk of the polymer, excipients can be used to decrease the crystallinity of the TMC278 and thereby lower the energy necessary to solubilize the drug. […] The recrystallized TMC278 was prepared by dissolving 10 grams of TMC278 in 800 ml of DMSO under gentle stirring for 2 hours. One hundred milliliters of the solution was subsequently poured into a flat bottomed aluminum mold. Solution was lyophilized using a Dora-Stop MTS system. Lyophilized TMC278 was collected. Two grams of PLGA 50/50 were fed into DACA compounder that was pre-set to 120° C. with screws rotating at 100 rpm. After the polymer was fed into the DACA and melted, two grams of lyophilized TMC278 were fed into the compounder and mixed at the set conditions for an additional 5 minutes. The extruded strands were collected, cooled in ambient conditions and placed in plastic bags and stored in a nitrogen box for analysis.
The lowered crystallinity of the TMC278 when re-crystallized from DMSO is also reflected in the change of the appearance of the TMC278 crystals following the recrystallization procedure. The morphology of the TMC278 particles in the drug powder appear compact and needle-shaped, but after the recrystallization process the particles are highly porous (FIG. 3). […]

On to `Cc1cc(C=CC#N)cc(C)c1Nc1ccnc(Nc2ccc(C#N)cc2)n1` [TMC278, 4-[[4-[[4-(2-cyanoethenyl)-2,6-dimethylphenyl}-amino]-2-pyrimidinyl]-amino]-benzonitrile], for which, in data set [1] (15 kgy irradiation under nitrogen environment), the “Impurities stemming from TMC278 degradation (mass spectrometry)” value is on record as “no new impurities formed by the irradiation”. In data set [1] (irradiated at 25 kgy (under nitrogen)), the “TMC278 recovered (average)” value was 81%. For the same compound, the Side effects entry in data set [2] was “nausea, dizziness, abnormal dreams, dyspepsia, asthenia, skin rashes, somnolence and vertigo”. In data set [3] (DMSO), the “Solubility in DMSO” value was “highly soluble”.
As for `Cc1cc(/C=C/C#N)cc(C)c1Nc1ccnc(Nc2ccc(C#N)cc2)n1` [recrystallized TMC278], in data set [3] (recrystallized (lyophilized from DMSO) versus unrecrystallized TMC278), the “Solubility relative to unrecrystallized TMC278” value is reported as “more than 250 ×”.
